Literature values as cited in PubChem BioAssay AID1259409 (Chemical Carcinogenesis Research Information System (CCRIS), 2018).
Several values for one entry are separate records, joined by “and”; a condition that tells them apart may be missing. Identical values can stand only once.

Test system: rodent chemically induced tumor inhibition, incidence and multiplicity
Assay: CCRIS tumor inhibitor studies

## CC(C)(C)c1ccccc1O
Carcinogen: BENZO[A]PYRENE, 50-32-8, Dose [Inhibitor]: 0.03 MMOL/G OF DIET DAILY STARTING 7 D BEFORE AND CONTINUING THROUGH 3 D AFTER CARCINOGEN TREATMENT FOLLOWED BY OBSERVAT, Route [Inhibitor]: ORAL, Species: MOUSE, Strain/Sex: ICR/FEMALE, Target Tissue: Type of Lesion: FORESTOMACH: NEOPLASM, Dose [Carcinogen]: 1 MG IN 0.2 ML CORN OIL 2/WK FOR 4 WK, Promoter: NONE USED
  tumour outcome (control, treated, inhibition, significance): 94%, 85%, 10%, not significant and 100%, 95%, 5%, not significant

## COCC(=O)[C@@]1(OC(C)=O)CC[C@H]2[C@@H]3CCC4=CC(=O)CCC4=C3[C@@H](c3ccc(N(C)C)cc3)C[C@@]21C
Carcinogen: 7,12-Dimethylbenz(a)anthracene (57-97-6), Dose [Inhibitor]: 1 mg administered daily for 28 days, Route [Inhibitor]: Subcutaneous, Species: Rat, Strain/Sex: Sprague-Dawley/Female, Target Tissue: Type of Lesion: Mammary gland: Adenocarcinoma and papilliary carcinoma, Dose [Carcinogen]: 10 mg/kg once at 50 days of age, Promoter: None
  tumour outcome (control, treated, inhibition, significance): 12/13 (92%), 9/11 (82%), 11%, ns
Carcinogen: 7,12-Dimethylbenz(a)anthracene (57-97-6), Dose [Inhibitor]: 2 mg administered daily for 28 days, Route [Inhibitor]: Subcutaneous, Species: Rat, Strain/Sex: Sprague-Dawley/Female, Target Tissue: Type of Lesion: Mammary gland: Adenocarcinoma and papillary carcinoma, Dose [Carcinogen]: 10 mg/kg once at 50 days of age, Promoter: None
  tumour outcome (control, treated, inhibition, significance): 12/13 (92%), 11/12 (92%), 0%, ns
Carcinogen: 7,12-Dimethylbenz(a)anthracene (57-97-6), Dose [Inhibitor]: 2 mg administered daily for 28 days, Route [Inhibitor]: Subcutaneous, Species: Rat, Strain/Sex: Sprague-Dawley/Female, Target Tissue: Type of Lesion: Mammary gland: Adenocarcinoma and papillary carcinoma, Dose [Carcinogen]: 10 mg/kg once at 50 days of age, Promoter: Progesterone (57-83-0)
  tumour outcome (control, treated, inhibition, significance): 12/13 (92%), 10/11 (91%), 0%, ns
Carcinogen: 7,12-Dimethylbenz(a)anthracene (57-97-6), Dose [Inhibitor]: 10 mg administered daily for 28 days, Route [Inhibitor]: Subcutaneous, Species: Rat, Strain/Sex: Sprague-Dawley/Female, Target Tissue: Type of Lesion: Mammary gland: Adenocarcinoma and papillary carcinoma, Dose [Carcinogen]: 10 mg/kg once at 50 days of age, Promoter: None
  tumour outcome (control, treated, inhibition, significance): 12/13 (92%), 10/11 (91%), 0%, ns
Carcinogen: 7,12-Dimethylbenz(a)anthracene (57-97-6), Dose [Inhibitor]: 10 mg administered daily for 28 days, Route [Inhibitor]: Subcutaneous, Species: Rat, Strain/Sex: Sprague-Dawley/Female, Target Tissue: Type of Lesion: Mammary gland: Adenocarcinoma and papillary carcinoma, Dose [Carcinogen]: 10 mg/kg once at 50 days of age, Promoter: Progesterone (57-83-0)
  tumour outcome (control, treated, inhibition, significance): 12/13 (92%), 10/12 (83%), 10%, ns

## CC1=C(/C=C/C(C)=C/C=C/C(C)=C/C(=O)NCCCCO)C(C)(C)CCC1
Carcinogen: N-BUTYL-N-(4-HYDROXYBUTYL)NITROSAMINE, 3817-11-6, Dose [Inhibitor]: 1.5 MMOL/KG DIET DAILY FOR 133 D STARTING ONE WK AFTER THE FINAL CARCINOGEN DOSE (STUDY DURATION: 190 D), Route [Inhibitor]: ORAL, Species: MOUSE, Strain/Sex: BDF/MALE, Target Tissue: Type of Lesion: URINARY BLADDER: TRANSITIONAL CELL CARCINOMA, Dose [Carcinogen]: 7.5 MG 1/WK FOR 8 WK, Promoter: NONE USED
  tumour outcome (control, treated, inhibition, significance): 21/100 (21%), 21/100 (21%), 0%, not significant
Carcinogen: N-BUTYL-N-(4-HYDROXYBUTYL)NITROSAMINE, 3817-11-6, Dose [Inhibitor]: 1.5 MMOL/KG IN DIET FOR 133 D STARTING 1 WK AFTER LAST CARCINOGEN DOSE (STUDY DURATION: 190 D), Route [Inhibitor]: ORAL, Species: MOUSE, Strain/Sex: DBF1/MALE, Target Tissue: Type of Lesion: URINARY BLADDER: TRANSITIONAL CELL CARCINOMA, Dose [Carcinogen]: 7.5 MG 1/WK FOR 8 WK, Promoter: NONE USED
  tumour outcome (control, treated, inhibition, significance): 21/100 (21%), 21/100 (21%), 0%, not significant

## O=C(O)[C@@H]1CCCN1 (tested in a mixture with another compound)
Carcinogen: N-NITROSODIETHYLAMINE, 55-18-5, Dose [Inhibitor]: 0, 50 MG/KG 2/WK 1 HR PRIOR TO AND 24 HR POST CARCINOGEN TREATMENT FOR 10 WK (STUDY DURATION: 28 WK), Route [Inhibitor]: INTRAPERITONEAL, Species: RAT, Strain/Sex: BD-6/MALE, Target Tissue: Type of Lesion: LIVER: TUMOR, Dose [Carcinogen]: 80 MG/KG 1/WK FOR 10 WK, Promoter: NONE USED
  tumour outcome (control, treated, inhibition, significance): 22/23 (96%), 5/23 (22%), 77%, p<0.001
Carcinogen: N-NITROSODIETHYLAMINE, 55-18-5, Dose [Inhibitor]: 0, 100 MG/KG 2/WK 1 HR PRIOR TO AND 24 HR POST CARCINOGEN TREATMENT FOR 10 WK (STUDY DURATION: 28 WK), Route [Inhibitor]: INTRAPERITONEAL, Species: RAT, Strain/Sex: BD-6/MALE, Target Tissue: Type of Lesion: LIVER: TUMOR, Dose [Carcinogen]: 80 MG/KG 1/WK FOR 10 WK, Promoter: NONE USED
  tumour outcome (control, treated, inhibition, significance): 22/23 (96%), 9/21 (43%), 55%, p<0.001
Carcinogen: N-NITROSODIETHYLAMINE, 55-18-5, Dose [Inhibitor]: 0, 100 MG/KG 2/WK 1 HR PRIOR TO AND 24 HR POST CARCINOGEN TREATMENT FOR 10 WK (STUDY DURATION: 40 WK), Route [Inhibitor]: INTRAPERITONEAL, Species: RAT, Strain/Sex: BD-6/MALE, Target Tissue: Type of Lesion: LIVER: TUMOR, Dose [Carcinogen]: 80 MG/KG 1/WK FOR 10 WK, Promoter: NONE USED
  tumour outcome (control, treated, inhibition, significance): 22/23 (96%), 8/20 (40%), 58%, not calculated

## S=C=Nc1cccc2ccccc12
Carcinogen: 2-AMINO-3-METHYLIMIDAZO[4,5-B]PYRIDINE (PHIP) [105650-23-5), Dose [Inhibitor]: DIET, Route [Inhibitor]: 400 PPM ADMINISTERED FROM 42 TO 66 D OF AGE, Species: RAT, Strain/Sex: SPRAGUE-DAWLEY/FEMALE, Target Tissue: Type of Lesion: MAMMARY, CARCINOMA, Dose [Carcinogen]: 85 MG/KG BW 8 TIMES OVER 11 D, STARTING 1 WK AFTER ANIT FEEDING (STUDY DURATION: 24 WKS)
  tumour outcome (control, treated, inhibition, significance): 56.3%, 6.7%, 88.1%, p<0.001

## C[S+](C)CC(=O)[O-]
Carcinogen: 7,12-DIMETHYLBENZ[A]ANTHRACENE, 57-97-6, Dose [Inhibitor]: 0, 0.005 MOL/KG DIET BEGINNING 2 WK PRIOR TO CARCINOGEN AND CONTINUED FOR STUDY DURATION (STUDY DURATION: 25 WK), Route [Inhibitor]: ORAL, Species: RAT, Strain/Sex: CD-1/FEMALE, Target Tissue: Type of Lesion: MAMMARY GLAND: ADENOCARCINOMA, Dose [Carcinogen]: 10 MG ONCE, Promoter: NONE USED
  tumour outcome (control, treated, inhibition, significance): 20/25 (80%), 19/25 (76%), 5%, not significant
Carcinogen: 7,12-DIMETHYLBENZ[A]ANTHRACENE, 57-97-6, Dose [Inhibitor]: 0, 0.01 MOL/KG DIET BEGINNING 2 WK PRIOR TO CARCINOGEN AND CONTINUED FOR STUDY DURATION (STUDY DURATION: 25 WK), Route [Inhibitor]: ORAL, Species: RAT, Strain/Sex: CD-1/FEMALE, Target Tissue: Type of Lesion: MAMMARY GLAND: ADENOCARCINOMA, Dose [Carcinogen]: 10 MG ONCE, Promoter: NONE USED
  tumour outcome (control, treated, inhibition, significance): 20/25 (80%), 21/25 (84%), -5%, not significant
Carcinogen: 7,12-DIMETHYLBENZ[A]ANTHRACENE, 57-97-6, Dose [Inhibitor]: 0, 0.02 MOL/KG DIET BEGINNING 2 WK PRIOR TO CARCINOGEN AND CONTINUED FOR STUDY DURATION (STUDY DURATION: 25 WK), Route [Inhibitor]: ORAL, Species: RAT, Strain/Sex: CD-1/FEMALE, Target Tissue: Type of Lesion: MAMMARY GLAND: ADENOCARCINOMA, Dose [Carcinogen]: 10 MG ONCE, Promoter: NONE USED
  tumour outcome (control, treated, inhibition, significance): 20/25 (80%), 18/25 (72%), 10%, not significant
